Experimental data: EP3650451A1, “COMPOUNDS AND THEIR USES AS FLUORESCENT PROBES” (Consejo Superior de Investigaciones Cientificas, priority 2017, dated 2019)

How the values were obtained:
[1] = Photophysical characterization: absorption and fluorescence spectra; format: physicochemical; conditions: for λfl: Fluorescence peak wavelength: excitation at 490 nm; for φf: Quantum yield: reference PM567 in ethanol
Procedure: The photophysical characterization of probes 3 and 4 was carried out analyzing the corresponding absorption and fluorescence spectra in the UV-visible region of the spectrum.
Its photophysical behavior is dependent on the degree of substitution of the BODIPY, since the alkylation of the chromatophore induces sufficient steric hindrance to reduce the free rotation of the 8-mesityl group, a process that entails a significant reduction in fluorescence efficiency. Thus, probe 4 in water stands out for having a high molar absorption coefficient (3.8 × 10^4 M^-1 cm^-1 at 499 nm) and a very efficient fluorescence emission at 511 nm, with a quantum yield of up to 80%.

SCC38 cells = assay: Labeling in the presence of FCCP (depolarized mitochondrial membrane), flow cytometry; format: cell-based, human
Procedure: • Fig. 1. In vivo labeling of SCC38 cells with compound 4 at different concentrations (50, 100 and 500 nM). Scale bar: 10 µm • Fig. 2. Flow cytometry studies in SCC38 and HeLa cell lines labeled with compound 4 and Mito Tracker® Red. Histograms wherein fluorescence intensity vs number of events is represented for each of the staining times (5, 15 and 30 min) and control (Ctrl), for the SCC38 and HeLa cells and for each of the two markers. • Fig. 3. Absorption (A) and fluorescence (B) spectra, normalized to molar absorption and fluorescence quantum yield of probe 4 in different solvents; chloroform (green), acetone (black), acetonitrile (red), ethanol (blue) and water (gray). • Fig. 4. […] (A) Flow cytometry analysis of SCC38 cells incubated in the presence (+FCCP) or absence (-FCCP) of FCCP 60 µM for 3 h before staining with 20 nM of 4 or 0.5 nm of MitoTracker. The data represent the mean fluorescence intensity (MFI) of the stained cells. (B) Microscopy analysis of SCC38 cells pretreated or not with FCCP before co-staining with 20 nM of 4 and 0.5 nm of MitoTracker. The graphs show the fluorescence profiles of the regions of interest indicated with white lines in the right-hand panels. Scale bars: 10 µm). • Fig. 5. […] The data represent the mean fluorescence intensity (MFI) of the stained cells (upper panels) and representative images of the cytometry profiles (lower panels). • Fig. 7. […] (B) The data represent the mean fluorescence intensity (MFI) of the labeled cells.
The labeling was analyzed by flow cytometry in the presence of carbonyl cyanide-p-(trifluoromethoxy)phenylhydrazone (FCCP), a protonophore used to reduce the mitochondrial membrane potential (ΔΨm) through depolarization of the mitochondrial membrane. […] Indeed, the suppression of dye-mitochondria electrostatic attraction as a passive labeling mechanism reduces the concentration of the dye in the cell organelle and, thus, the probability and extent of the fluorescence deactivation processes, with the ensuing increase in their efficiency. […]

## CC1=CC(C)=[N+]2C1=C(c1c(C)cc(C)cc1C)c1c(C)cc(C)n1[B-]21OC(=O)C[C@H](C[N+](C)(C)C)O1 (some centres unmarked) [Compound 4]
[1]
  photostability: high photostability
[1]; Acetone
  kfl: Radiative decay constant: 1.27 10^8s^- 1
  knr: Non-Radiative decay constant: 0.16 10^8s^- 1
  Δv: Stokes shift: 504 cm⁻¹
  εmax: Molar extinction coefficient at the absorption peak: 5.1 × 10^4 (M^-1 cm^- 1)
  λab: Absorption peak wavelength: 501 nm
  τ: Fluorescence lifetime: 7.00 ns
  λfl: Fluorescence peak wavelength: 514 nm
  φf: Quantum yield: 0.89
[1]; Acetonitrile
  kfl: Radiative decay constant: 1.21 10^8s^- 1
  knr: Non-Radiative decay constant: 0.20 10^8s^- 1
  Δv: Stokes shift: 469 cm⁻¹
  εmax: Molar extinction coefficient at the absorption peak: 4.9 × 10^4 (M^-1 cm^- 1)
  λab: Absorption peak wavelength: 500 nm
  τ: Fluorescence lifetime: 7.12 ns
  λfl: Fluorescence peak wavelength: 512 nm
  φf: Quantum yield: 0.86
[1]; Chloroform
  kfl: Radiative decay constant: 1.36 10^8s^- 1
  knr: Non-Radiative decay constant: 0.22 10^8s^- 1
  Δv: Stokes shift: 424 cm⁻¹
  εmax: Molar extinction coefficient at the absorption peak: 4.8 × 10^4 (M^-1 cm^- 1)
  λab: Absorption peak wavelength: 504 nm
  τ: Fluorescence lifetime: 6.32 ns
  λfl: Fluorescence peak wavelength: 514 nm
  φf: Quantum yield: 0.86
[1]; Ethanol
  kfl: Radiative decay constant: 1.22 10^8s^- 1
  knr: Non-Radiative decay constant: 0.18 10^8s^- 1
  Δv: Stokes shift: 427 cm⁻¹
  εmax: Molar extinction coefficient at the absorption peak: 5.1 × 10^4 (M^-1 cm^- 1)
  λab: Absorption peak wavelength: 502 nm
  τ: Fluorescence lifetime: 7.10 ns
  λfl: Fluorescence peak wavelength: 513 nm
  φf: Quantum yield: 0.87
[1]; Water
  kfl: Radiative decay constant: 1.14 10^8s^- 1
  knr: Non-Radiative decay constant: 0.23 10^8s^- 1
  Δv: Stokes shift: 470 cm⁻¹
  εmax: Molar extinction coefficient at the absorption peak: 3.8 × 10^4 (M^-1 cm^- 1)
  λab: Absorption peak wavelength: 499 nm
  τ: Fluorescence lifetime: 7.30 ns
  λfl: Fluorescence peak wavelength: 511 nm
  φf: Quantum yield: 0.83
[1]; concentrations as high as 10^-4 M
  tendency towards H- or J- type aggregation: not exhibit any tendency towards H- or J- type aggregation
[1]; in water
  fluorescence emission (wavelength): 511 nm
  quantum yield: up to 80%
[1]; in water, at 499 nm
  molar absorption coefficient: 38000 M⁻¹ cm⁻¹
SCC38 cells; 60 µM FCCP for 3 h at 37 °C
  labeling of depolarized mitochondria: capable of labeling depolarized mitochondria
SCC38 cells; 60 µM FCCP for 3 h at 37 °C before staining, 20 nM of 4 or 0.5 nM of MitoTracker
  mitochondrial fluorescence of cells treated with FCCP: increase in fluorescence
